Experimental data reported in the NIST ThermoML archive (doi:10.1021/je7001122).
“And” between values parts separate entries of the source, which are not always exact repeats. Identical values can stand only once. ± gives the expanded uncertainty stated by the source.

Settings: Liquid

CCCCCCCCCC [decane]
Transpiration method
Settings	vapor or sublimation pressure [kPa]
323.94 K	0.9556 ± 0.054
353.57 K	4.252 ± 0.22
373.15 K	10.05 ± 0.52
402.36 K	29.48 ± 1.5
402.48 K	29.36 ± 1.5

CCCCCCCCCCCCCCCCCCCCCCCCCCCC [octacosane]
Transpiration method
Settings	vapor or sublimation pressure
354.01 K	2.14e-06 ± 2.6e-07 kPa
373.92 K	1.77e-05 ± 1.2e-06 kPa and 1.8e-05 ± 1.2e-06 kPa
393.65 K	0.000122 ± 7e-06 kPa and 0.000126 ± 7e-06 kPa
413.5 K	0.000633 ± 3.5e-05 kPa and 0.000651 ± 3.6e-05 kPa and 0.00063 ± 3.5e-05 kPa
433.32 K	0.00293 ± 0.00016 kPa
453.28 K	0.01264 ± 0.00068 kPa
473.64 K	0.04404 ± 0.0024 kPa
494.8 K	0.1554 ± 0.0081 kPa
516.89 K	0.4272 ± 0.05 kPa

CCCCCCCCCCCCCCCCCCCCCCCC [tetracosane]
vapor or sublimation pressure
Settings	Diaphragm manometer	Transpiration method
333.46 K	–	4.3e-06 ± 5e-07 kPa
353.43 K	–	4.35e-05 ± 2.4e-06 kPa
353.97 K	–	4.5e-05 ± 2.5e-06 kPa
373.17 K	0.000296 ± 2.1e-05 kPa	0.000307 ± 1.6e-05 kPa
373.61 K	0.000322 ± 2.2e-05 kPa	0.000316 ± 1.7e-05 kPa
379.15 K	0.000531 ± 2.8e-05 kPa	0.000524 ± 3.1e-05 kPa
393.2 K	0.001727 ± 5.9e-05 kPa	0.001725 ± 9e-05 kPa and 0.001721 ± 9e-05 kPa
397.55 K	0.002432 ± 0.0001 kPa	0.002406 ± 0.00014 kPa
414.68 K	0.008547 ± 0.00027 kPa	0.00843 ± 0.00045 kPa
417.75 K	0.01055 ± 0.00032 kPa	0.0105 ± 0.00055 kPa
433.1 K	0.02857 ± 0.0009 kPa	–
452.6 K	0.08931 ± 0.0025 kPa	–
